Measured values as given in paper PMC8465649, “Semaphorin 3A—Glycosaminoglycans Interaction as Therapeutic Target for Axonal Regeneration” (Pharmaceuticals, 2021).
Blank lines part the entries; values can stand above or below the molecule they belong to. Ends that are not written are not given here.

What was measured:
[1] = NMR competition (WaterLOGSY / spin-lock filtered 1H): displacement of FS2/FS3 peptides from heparin agarose resin; format: binding; conditions: pH 7.5; for displacement of FS3 peptide from heparin agarose resin: spin-lock filtered 1D 1H NMR, 1 mM peptide, 1 mM peptoid
Experimental: NMR competition experiments involved the acquisition of 1D-^1H WaterLOGSY or spin-lock filtered NMR spectra. Thus, FS2 peptide is displaced from heparin agarose resin by CSIC02 (1:1 peptoid/FS2, both 1 mM), but not by CSIC03 (Figure S15). […] We reasoned that if CSIC02 was able to interact with GAG and displace FS2/FS3 basic peptides, it may also interfere with SCTWT–heparin interaction. To investigate if CSIC02 could displace SCTWT from heparin dp14 and to define the SCTWT residues affected, 2D NMR ^1H-^15N HSQC CSP experiments were used. Figure 8a illustrates the chemical shift effects of CSIC02 addition to a sample of SCTWT containing dp14 heparin. […] In Figure 8b, we display the chemical shift perturbation of SCTWT NMR spectra in the presence of dp14 and CSIC02. Thus, as the two CSP plots in Figure 4b and Figure 8b were calculated using as reference SCTWT alone in solution, we can compare them directly. […] Moreover, splitting of signals for some residues (R733, R734, and Q735 in the first GAG-binding region) was observed (Figure 8c). This observation is compatible with the presence of different species in slow chemical exchange in solution, with partial detachment of SCTWT from heparin. The amount of CSIC02 used in these experiments can be rationalized considering that the SCTWT has ca. 12 positive charges at neutral pH (Figure S18), while CSIC02 is tricationic. Since the binding is mediated by ionic polar interactions, a large excess of CSIC02 is needed to counterbalance the SCTWT-dp14 binding.
Next, 1D ^1H T1ρ relaxation filtered and WaterLOGSY NMR experiments were acquired at 25 °C on a 500-MHz spectrometer (Varian Inova; Agilent Technologies, Santa Clara, CA, USA) equipped with an AutoX inverse double-resonance probe with a z-shielded pulsed-field gradient coil. The samples were prepared in a 5-mm Wilmad NMR 528-PP tubes with 10 mM Tris-d11 (for peptide/GAG samples) and 150 mM NaCl dissolved in 90% H2O/10% D2O at pH 7.5. All spectra were obtained with a sweep width of 8 kHz and 16,384 acquired data points. The experiments were recorded using the standard pulse sequence in the (WLOGSY_ES) Chempack library, with excitation sculpting to suppress water resonances. For Water-LOGSY experiments, the first water-selective 180° pulse was 25 ms long. The spectra were acquired with 1200 transients and a spin-lock pulse of 50 ms at 3.7 kHz. To phase Water-LOGSY spectra correctly, it is necessary to use an internal reference compound. In our case, the reference is the residual ethanol absorbed/bonded in heparin-agarose resin (this interaction was previously confirmed with T1ρ filtered experiments), which appears as a positively phased signal. […]

Sema3A = test system: Sema3A; design: method as in PMID 27028639; conditions: cited from earlier work
Nrp1 = test system: Nrp1; design: method as in PMID 27028639; conditions: cited from earlier work
[2] = test system: Sema3A chemorepulsive activity; design: method as in PMID 19615921; conditions: cited from earlier work
[3] = Potentiometric titration (protonation state); format: physicochemical; conditions: 25 °C, 0.15 M NaCl
Experimental: UV absorbance was measured using a SpectraMax M5 spectrophotometer (Molecular Devices, Sunnyvale, CA, USA). The experiments were performed with a 10 μM methylene blue (MB) solution in 5 mM Tris-HCl buffer at pH 7.5, to which increasing amounts of heparin were added to saturation of the MB dye. For the competition assays, solutions of MB and heparin at fixed concentrations were titrated with increasing amounts of SICHI or CSIC02–04 peptoids. Then, the relative increase in absorbance at 665 nm, due to release of MB from the MB–heparin complex when adding either SICHI or CSIC02–04 to the cuvette, can be plotted vs. the charge ratio considering their respective concentrations and that all the peptoids have three positive charges, and heparin has four negative charges per disaccharide unit. With this information, the charge excess for 50% of displacement of the MB dye (CE50) for each compound can be calculated for comparison. Potentiometric titrations were carried out in a reaction vessel thermostated with a water bath at 25.0 ± 0.1 °C under nitrogen atmosphere, and 0.15 M NaCl was used as the supporting electrolyte. The titrant was delivered by a precision microburette. The potentiometric measurements were made with a pH-mV meter. The reference electrode was an Ag/AgCl electrode in saturated KCl solution. The acquisition of the emf data was performed with the computer program Tiamo 2.3.1. […]

[4] = SPR binding to immobilized biotinylated heparin; conditions: Table S3
Experimental: (§1) The interaction between Sema3A basic tail and GAGs was analyzed using several methods: chromatographic elution as a function of NaCl concentration based on affinity to a heparin sepharose column, surface plasmon resonance (SPR), NMR [52], and molecular dynamics simulations. Firstly, we observed that SCTWT binds to a heparin-Sepharose column and the protein is only released at about 1M NaCl (>50% of buffer B, Figure 3c), similar to the widely reported antithrombin–heparin interaction, indicating a SCTWT-heparin high-affinity, in the 10^−7–10^−9 M range [54]. Next, SPR measurements were performed to characterize protein–heparin binding kinetics. […]
All SPR experiments were performed on a Biacore T-100 instrument (Cytiva, formally GE Healthcare, Marlborough, MA, USA) in HBS-T buffer (10 mM HEPES, 150 mM NaCl, 0.05% Tween-20, pH 7.5) at 25 °C. […] The SPR experiments were performed in duplicate and the dissociation constant (Kd) values and binding levels are expressed as the mean and standard deviation from the individual experiments. […]

[5] = Heparin affinity chromatography (NaCl gradient elution); format: binding
Experimental: Figure 3 SPR sensorgrams of increasing amounts (0 to 1 μM) of the SCTWT construct flown over (HBS-T buffer) (a) immobilized biotinylated heparin (350 RU) (b) CD Spectra of 5 μM Sema3A C-terminal region in the absence (blue) and the presence of 1 μM UFH (orange), measured at pH 5.5 in 10 mM NaP. […] SCTWT was loaded onto a HiTrap Heparin column equilibrated with […] (pH 7.5), and eluted with a linear gradient to 2 M NaCl. Left ordinate axis, absorbance; righ ordinate axis, % NaCl (% B).
A prepacked 1-mL HiTrap Heparin HP affinity column (GE Healthcare) was used on a AKTA purifier system to perform heparin affinity chromatography. Then, 100 μL of SCT samples at ~100 μM were injected and run at 1 mL/min in a linear gradient with buffer A = 10 mM Tris-HCl, pH = 7.5 and buffer B = 10 mM Tris-HCl, 2M NaCl, pH = 7.5.

[6] = SPR binding to immobilized biotinylated CS-A
Experimental: as §1
All SPR experiments were performed on a Biacore T-100 instrument (Cytiva, formally GE Healthcare, Marlborough, MA, USA) in HBS-T buffer (10 mM HEPES, 150 mM NaCl, 0.05% Tween-20, pH 7.5) at 25 °C. […] The SPR experiments were performed in duplicate and the dissociation constant (Kd) values and binding levels are expressed as the mean and standard deviation from the individual experiments.

[7] = target: the molecule itself; assay: 1H-15N NMR spectra; 1H-15N NMR spectra of LCTWT acquired without and with reducing agent TCEP; monomer and dimer

- displacement of FS2 peptide from heparin agarose resin ([1]; WaterLOGSY, 1:1 peptoid/FS2, both 1 mM): not
- displacement of FS3 peptide from heparin agarose resin [1]: incapable to displace
Molecule: CCN(CC)CCNCC(=O)N(CCN1CCCC1)CC(=O)NCCC1CCCN1C (stereo not drawn) [CSIC03]

- displacement of FS3 peptide from heparin agarose resin [1]: incapable to displace
Molecule: CCN(CC)CCN(CC(=O)N(CCN1CCCC1)CC(=O)NCCC1CCCN1C)C(=O)OCc1ccccc1 (stereo not drawn) [CSIC04]

- protonation state at neutral pH [3]: triprotonated
Molecule: CCN(CC)CCNCC(=O)N(CCN1CCCC1)CC(=O)N(CCC1CCCN1C)CC(N)=O (stereo not drawn) [SICHI]
- binding to Sema3A (Sema3A): neither Sema3A or Nrp1 bind
- binding to Nrp1 (Nrp1): neither Sema3A or Nrp1 bind
- in vitro effect on Sema3A chemorepulsive activity [2]: inhibition

- fold stronger affinity to heparin compared to NFS3 peptide [4]: 60 fold
Molecule: FS2: Sema3A C-terminal peptide 725-736, VWKRDRKQRRQR

Molecule: LCTWT: recombinant Sema3A C-terminal construct 716-771 incorporating the cysteine (NTMDEFCEQVWKRDRKQRRQRPGHTPGNSNKWKHLQENKKGRNRRTHEFERAPRSV; also: post-translational modification of the N-terminus, kind not given here)
- NaCl concentration at elution under reducing conditions ([5]; 5 mM DTT): ~ 0.92 M NaCl
- NaCl concentration at elution peak (single or major peak) ([5]; linear gradient to 2 M NaCl, Tris-HCl pH 7.5): ~ 1.12 M NaCl
- NaCl concentration at minor elution peak ([5]; linear gradient to 2 M NaCl, minor peak (monomeric form)): ~ 0.92 M NaCl

- binding to CS-A ([6]; immobilized biotinylated CS-A): completely abrogated
Molecule: SCTRR/QH: SCT construct bearing two mutations, R730Q and R733H (VWKRDQKQHRQRPGHTPGNSNKWKHLQENKKGRNRRTHEFERAPRSV; UniProt Q14563 725-771, looked up, variant R730Q R733H)
- elution of the mutated protein relative to SCTWT ([5]; heparin affinity chromatography): slightly earlier elution

- affinity for heparin versus CS-A ([6]; comparison of heparin and CS-A chips): higher affinity to heparin than to CS-A
Molecule: SCTWT: recombinant Sema3A C-terminal polybasic tail construct, residues 725–771 (VWKRDRKQRRQRPGHTPGNSNKWKHLQENKKGRNRRTHEFERAPRSV; UniProt Q14563 725-771, looked up, fragment)

B1: recombinant Sema3A C-terminal construct incorporating the cysteine (LCTWT, 716-771) (domain or fragment, human, UniProt Q14563 716-771, looked up)
chain: NTMDEFCEQVWKRDRKQRRQRPGHTPGNSNKWKHLQENKKGRNRRTHEFERAPRSV
modifications: also: post-translational modification of the N-terminus, kind not given here
notes: Semaphorin 3A (Sema3A), human, C-terminal region 716-771 with the cysteine (Cys722 as printed) between the Ig domain and the basic tail; The methods say that the SCT constructs were made without any fusion tag in E. coli BL21 (DE3) and purified by cation exchange and reverse phase; source: recombinant
- binding result [7]: binds
